The values that follow come from a melting point compilation (Tetko et al.; mined from patent text by program, amines drawn as free bases though some values may be those of a salt).

Broadly, the melting point is the temperature, or range, at which the solid turns liquid.

`NC(=O)c1cc(C(O)CNCCCn2nnc3ccccc32)ccc1O` (stereo not given) gave a melting point of 154 to 155 °C.
Next, `NS(=O)(=O)c1ccc(-c2cnn(Cc3ccc(F)cc3)c(=O)c2-c2ccc(F)cc2)cc1`: 237 to 239 °C.
Next, `COC(=O)CNC(=O)CC(O)CBr` (stereo not given): 60 to 61 °C; `CC(=O)OC1CSC(Oc2cncc(-c3ccc(OC(C)C)c(F)c3)c2)C(OC(C)=O)C1OC(C)=O` (stereo not given): 65 °C; `CCCCCCCCCCCCOc1ccc2cc(C(C)C(=O)O)ccc2c1` (stereo not given): 96 to 97 °C.
In turn, `CCCCC(CC)CNCCCOc1ccc2ccccc2c1` (stereo not given) registered a melting point of 97 °C.
The same measure for `COC(=O)c1cc(C(=O)OC)c(O)c([N+](=O)[O-])c1`: 74 to 76 °C; for `O=C(NC1CCN(CC23CC(c4ccccc42)c2ccccc23)CC1)NC1CCCCO1` (stereo not given): 211 to 212 °C; for `CCOC(=O)CCc1cccc(-c2c(CC(=O)Nc3ccc(F)cc3C(F)(F)F)c(=O)oc3cc(Cl)c(C)cc23)c1`: 121 to 123 °C.
Turning to `N=C(N)NCCCCN[N+](=O)[O-]`, the melting point lay in the range of 123 to 124 °C.
The same measure for `CCN1CCN(C(=O)c2ccc(-c3cc(-c4n[nH]cc4-c4cccc(C)n4)ccn3)cc2)CC1`: 126 °C; for `CCOC(=O)C(=O)N1CCN(c2ccccc2C(C)(C)C)CC1`: 95 to 98 °C.
`COCC1CCCN(c2ccnc3sc(C(N)=O)c(N)c23)C1` (stereo not given) had a melting point of 229 to 230 °C.
The same measure for `Cc1cccc2c1N=C(Cl)c1cscc1O2`: 160 to 161 °C; for `Oc1ccc2c(ccn2Nc2ccncc2F)c1`: 70 to 73 °C; for `COc1cc(-c2csc(C(=N)NO)n2)cc(Cl)c1OC`: 169 to 170 °C.
As for `O=C(c1ccc(F)cc1)C1CCN(CCCn2c(=O)[nH]c3cccc(Cl)c32)CC1`, the melting point amounted to 138 °C.
Next, `Cc1c(NC(=O)CC(C)(C)C)c(C)c2c(c1-c1c[nH]cn1)OCC2c1ccc(C(C)C)cc1` (stereo not given): 277 to 279 °C; `CCCc1c(COc2ccc(C(=O)c3cccc(-c4nnn[nH]4)c3)cc2)ccc(C(C)=O)c1O`: 208 to 214 °C; `CN(C)c1cccc(-c2cnc3[nH]cc(C(=O)C(C)(C)C)c3n2)c1`: 223 to 228 °C.
The same measure for `O=C(/C=C/c1ccc(N2CCCCC2)cc1)CC(=O)/C=C/c1ccc2cc[nH]c2c1`: 91 to 96 °C.
Next, `CC(C)Nc1ccc(-c2ncc(C(F)(F)F)cc2Cl)cc1[N+](=O)[O-]`: 107 to 109 °C; `C=CCc1cc(F)ccc1OCCCN1CCC2(CC1)C(=O)NCN2c1ccccc1`: 110 to 113 °C.
Turning to `Nc1nc2ccccc2c2c1ncn2CCOCC#Cc1ccccc1C(F)(F)F`, the melting point is 154 to 155 °C.
Next, `COC(=O)C(C)c1ccc2nc(-c3ccc(Cl)cc3)ccc2c1` (stereo not given): 114 to 115 °C; `Nc1c(Cl)cc(C(=O)Cl)cc1Cl`: 165 °C; `COc1nc(OC)nc(N(C)C(=O)NS(=O)(=O)c2ccccc2S(C)(=O)=O)n1`: 160 to 162 °C.
The same measure for `COc1cc(C(=O)OCc2ccccc2)ccc1S(=O)(=O)Cl`: 72 °C.
Next, `O=C(c1ccccc1SSc1ccccc1C(=O)N1CCC(O)C1)N1CCC(O)C1` (stereo not given): 168 to 172 °C; `COC(=O)c1cc2cc(OC)ccc2cc1O`: 129 to 131 °C; `O=c1[nH]c2occc2c2ccccc12`: 216 to 218 °C.
With `CC1Cc2ccc(Br)cc2C(c2ccc([N+](=O)[O-])cc2)=NN1C(N)=O` (stereo not given), the melting point is 193 to 203 °C.
Next, `O=C(CN1CC(c2ccc(Cl)cc2)CC1=O)N1CCNCC1` (stereo not given): 148 to 150 °C; `CCOC(CN1CCN(c2cccc(-n3cnc4cc(C(C)=O)ccc43)c2)CC1)=NO`: 154 to 156 °C.
The same measure for `CCOC(=O)c1cn(-c2cccc(Oc3ccc(Cl)cc3)c2)cn1`: 112 to 113 °C; for `CN(CCF)c1ccc2cc(-c3nc4ccccc4s3)c(=O)oc2c1`: 231 to 233 °C; for `CC(C)n1c(C=O)c(-c2ccc(F)cc2)c(-c2ccccc2)c1C(=O)Nc1cccc(C(=O)N(C)C)c1`: 202 to 203 °C.
The same measure for `Clc1ccc2c(N3CCNCC3)n[nH]c2c1`: 135 to 137 °C.
`COc1cccc(Oc2nc(N)n3nc(-c4ccco4)nc3n2)c1`: the melting point lay in the range of 226 to 227 °C.
Next, `O=C(O)CCCCCC1=CCCC1=O`: 70 to 72 °C.
Next, `COc1ccc2c(c1)c(-c1ccccc1)nc1nnc(C)n12`: 251 to 252 °C; `CN(C)C=CC=C(C#N)C(=O)N(C)C`: 149 to 150 °C.
The same measure for `Cc1ccc(CC2CCN(C(=O)C(=O)Nc3ccc(NS(C)(=O)=O)cc3)CC2)cc1`: 179 to 181 °C.
For `CCOn1c(OC)n[nH]c1=O`, the melting point turned out to be 57 °C.
In the case of `COc1cc(OC)nc(NC(=O)NS(=O)(=O)c2ccccc2CCBr)n1`, the melting point lay in the range of 163 to 166 °C.
Regarding `COc1ccc(-c2cc3ncccc3c(O)n2)cc1`, the melting point fell in the range of 295 to 298 °C.
`C[C@@H](OC(=O)c1cc([N+](=O)[O-])cc([N+](=O)[O-])c1)[C@@]1(c2ccc(F)cc2F)CO1` showed a melting point of 104 to 107 °C.
Next, `CC(C)c1ccc(-c2cnc(-c3cccc(C(=O)O)c3)[nH]2)cc1`: 296 to 298 °C; `Oc1ccc2c(c1Cl)Sc1ccccc1N2`: 110 °C; `Cc1ccc(C2=Cc3cc(C)c(C)cc3C2)cc1`: 227 to 228 °C.
The same measure for `O=C(O)c1cc(=O)c2c(o1)-c1ccccc1SC2`: 251 to 253 °C; for `CCc1[nH]c(=O)[nH]c1C(=O)c1cccnc1`: 219 to 221 °C.
The same measure for `CCNC(=O)c1ccc(CCN2CC=C(c3c[nH]c(-c4ccc(F)cc4)c3-c3ccncc3)CC2)cc1`: 228 to 230 °C; for `COc1ccc2c(c1)c(C(=O)N1CCN(C)CC1)c(N1CCNCC1)n2C`: 124 to 125 °C.
Regarding `C=CCNC(=O)N1CCc2cc(S(=O)(=O)N3CC(c4ccccc4)NC3=O)ccc21` (stereo not given), the melting point was 217 to 219 °C.
The same measure for `CC1(C(=O)P(=O)(c2ccccc2)c2ccccc2)CCCCC1`: 80 °C; for `COC(=O)c1cccc(Nc2nc(N)c(C(=O)c3ccccc3OC)s2)c1`: 214 to 215 °C; for `CCCC(CCC)n1nnc2c(Nc3c(Br)cc(OC)cc3OC)nc(C)cc21`: 140 to 141 °C.
Next, `CCCCN(C)C(N)=C(C#N)C(N)=S`: 163 to 165 °C; `CCCCCn1cc2cc(CCCC)oc2nc1=O`: 139 to 141 °C; `CCc1nc2c(N)nc3cccnc3c2n1CC1(O)CCNCC1`: 232 to 233 °C.
The same measure for `CC(C)c1ccc(N(Cc2ccc(N(C)C)cc2)C(=O)C2CCOc3cc(O)ccc32)cc1` (stereo not given): 173 °C; for `CCC(=O)NC[C@H]1CN(c2ccc3c(c2)C[C@@H](C)N3C(=O)OCc2ccccc2)C(=O)O1`: 181 to 183 °C; for `O=c1ccoc(CO)c1O`: 154 to 156 °C.
Regarding `C=C1C=C(Oc2cc(C(=O)OC)ccc2OC)C1(F)F`, the melting point lay in the range of 60 to 62 °C.
